Assay results: patent US20250215071A1, “Novel Mcl-1 inhibitor and combination of Mcl-1 and a BH3 mimetic, such as a Bcl-2 inhibitor” (NETRIS PHARMA, priority 2022, published 2025)

Legend:
[1] = test system: HCC70; assay: Propidium iodide incorporation (Incucyte Zoom) in HCC70 cells with netrin-1 silencing; assay type: cell-based; settings: up to 24 hours
Method: FIG. 10. Cell death assessment by combining netrin-1 silencing and Navitoclax. To assess cell death, Propidium iodide (PI) incorporation, normalized to cell confluence, was followed in real-time up to 24 hours by Incucyte Zoom technology for scramble (siCTRL), netrin-1 (siNet), scramble (siCTRL) and Navitoclax, netrin-1 (siNet) and Navitoclax.
In addition, breast cancer HCC70 were transfected with scramble (siCTRL) or netrin-1 (siNet) targeting siRNAs. 24 hours after transfection, cells were detached, plated again in 24-well plate and treated with 0.5 µM of the Bcl-2/Bcl-XL/Bcl-w inhibitor Navitoclax (Tse et al, Cancer Res, 2008; Shoemaker et al, Clin Cancer Res, 2008). To assess cell death, propidium iodide (PI) incorporation, normalized to cell confluence, was followed in real-time up to 24 hours by Incucyte Zoom technology.

[2] = cited from earlier work
[3] = test system: caspase-9; assay: UNC5B-induced caspase-9 activity in HeLa UNC5B cells; assay type: cell-based, Human; settings: Dox; 18 hours
Method: FIG. 5. UNC5B-mediated Mcl-1 degradation induces MOMP and caspase-9 activation. (A): UNC5B over-expression triggers Mitochondrial Outer Membrane Permeabilization (MOMP) in a COMMD2/CRL3 complex-dependent manner. Hela cells were transfected with scramble (siCTRL), COMMD2 (siCOMMD2-1) or RBX1 (siRBX1-1) siRNAs. 24 hours after transfection, cells were treated with Dox and after further 18 hours mitochondrial depolarization quantified by 5′,6,6′-tetrachloro-1,1′,3,3′-tetraethylbenzimi-dazolylcarbocyanine iodide (JC-1) dye staining, using NucleoCounter NC3000 (n=3, **** p<0.0001, ordinary two-way ANOVA with Tukey's multiple comparisons test). Values are given as means±SEM. (B,C,D): Apoptotic cell death induced by UNC5B over-expression requires caspase-9. HeLa UNC5B cells were transfected with scramble (siCTRL) or caspase-9 (siCASP9) siRNAs and 24 hours later treated with the indicated concentrations of Dox. Propidium iodide (PI)-positive cells were assessed in real-time up to 48 hours using Incucyte Zoom instrument (C) (n=[…], Kolmogorov-Smirnov test). DNA fragmentation was assessed by FACS analysis (D) and caspase-3 was measured using caspase-3 fluorometric kit (E), both 18 hours after treatment (n=[…], **** p<0.0001, ordinary two-way ANOVA with Šidák's multiple comparisons test). Values are given as means±SEM. […] HeLa UNC5B cells were treated with Dox and 18 hours later caspase-9 and -8 activities were assessed by fluorometric kit, using specific substrates (n=3, ^nsp>0.05, *p<0.05, Mann-Whitney test, one-tailed). […] 24 hours later, cells were treated with Dox and caspase-9 activity was measured by fluorometric kit (n=3, **** p<0.0001, ordinary two-way ANOVA with Tukey's multiple comparisons test). […] 18 hours after treatment, caspase-9 activity was assessed with the fluorometric kit (n=5, *p<0.05, ** p<0.01, *** p<0.001, **** p<0.0001, ordinary two-way ANOVA with Tukey's multiple comparisons test). […] Cells were then treated with Dox and Mcl-1 protein was evaluated by western blot. […]

[4] = test system: UNC5B-induced cell death; assay: UNC5B-induced cell death under inhibition of neddylation; assay type: cell-based

CC1(C)CCC(c2ccc(Cl)cc2)=C(CN2CCN(c3ccc(C(=O)NS(=O)(=O)c4ccc(N[C@H](CCN5CCOCC5)CSc5ccccc5)c(S(=O)(=O)C(F)(F)F)c4)cc3)CC2)C1 [Navitoclax]
cell death induction (PI incorporation) ([1]; 0.5 µM alone (siCTRL)): slight effect on cell death induction | cell death induction (PI incorporation) ([1]; 0.5 µM combined with netrin-1 silencing (siNet)): quickly and strongly triggered apoptosis

Cc1c(-c2c(-c3ccc(F)o3)sc3ncnc(O[C@H](Cc4ccccc4OCc4ccnn4CC(F)(F)F)C(=O)O)c23)ccc(OCCN2CCN(C)CC2)c1Cl [S63845]
tolerability ([2]; Brennan et al., 2018): overall good tolerability | B-cell population ([2]; during treatment (Brennan et al., 2018)): decrease in the B-cell population

NS(=O)(=O)OC[C@@H]1C[C@@H](n2ccc3c(N[C@H]4CCc5ccccc54)ncnc32)C[C@@H]1O [pevonedistat]
UNC5B-induced caspase-9 activation [3]: sufficient to prevent UNC5B-induced caspase-9 activation | UNC5B-induced cell death [4]: prevented UNC5B-induced cell death
